In patent US6514997B2, “Antipicornaviral compounds and compositions, their pharmaceutical uses, and materials for their synthesis” (Agouron Pharmaceuticals, Inc., priority 1999, dated 2003):
Where two headings read alike, the source gives them in different places.

Experiments:
[1] = Cytotoxicity (CC50) in mock-infected H1-HeLa cells, XTT dye reduction; assay type: cell-based, human; settings: human, H1-HeLa cells, mock-infected; line of HRV-14
Protocol: (§1) In this cell protection assay, the ability of compounds to protect cells against HRV infection was measured by the XTT dye reduction method, which is described in Weislow et al., J. Natl. Cancer Inst. […] H1-HeLa cells were infected with HRV-14 at a multiplicity of infection (m.o.i.) of 0.13 (virus particles/cell) or mock-infected with medium only. Infected or mock-infected cells were resuspended at 8×10^5 cells per mL, and incubated with appropriate concentrations of the compounds to be tested. Two days later, XTT/PMS was added to test plates and the amount of formazan produced was quantified spectrophotometrically at 450/650 nm. […] The therapeutic index (TI) was calculated by dividing the CC50 value by the EC50 value.
(§2) All strains of human rhinovirus (HRV) for use in this assay were purchased from American Type Culture Collection (ATCC), except for HRV serotype-14 (produced from the infectious cDNA clone constructed by Dr. Robert Rueckert, Institute for Molecular Virology, University of Wisconsin, Madison, Wis.). HRV stocks were propagated and viral assays were performed in H1-HeLa cells (ATCC). Cells were grown in minimal essential medium with 10% fetal bovine serum, available from Life Technologies (Gaithersburg, Md.).
(§3) Coxsackievirus types A-21 (CAV-21) and B3 (CVB3) were purchased from American Type Culture Collection (ATCC, Rockville, Md.). Virus stocks were propagated and antiviral assays were performed in H1-HeLa cells (ATCC). Cells were grown in minimal essential medium with 10% fetal bovine serum (Life Technologies, Gaithersburg, Md.). The ability of the compounds of this invention to protect cells against either CAV-21 or CVB3 infection was measured by the XTT dye reduction method. This method is described in Weislow et al., J. Natl. Cancer Inst. […] H1-HeLa cells were infected with CAV-21 or CVB3 at a multiplicity of infection (m.o.i.) of 0.025 or 0.075, respectively, or mock-infected with medium only. H1-HeLa cells were plated at 4×10^4 cells per well in a 96-well plate and incubated with appropriate concentrations of the test compound. One day (CVB3) or two days (CAV-21) later, XTT/PMS was added to test plates and the amount of formazan produced was quantified spectrophotometrically at 450/650 nm. […] The therapeutic index (TI) was calculated by dividing the CC50 by the EC50.

H1-HeLa cells = test: as above; assay type: cell-based, human
Protocol: as §1, §2, §3

[2] = system: strains of human rhinovirus (HRV); test: Antirhinoviral H1-HeLa cell culture assay (XTT cell protection, EC50), other HRV strains; assay type: cell-based, human rhinovirus in H1-HeLa cells; settings: read-out: EC50
Protocol: (§4) Antirhinoviral H1-HeLa Cell Culture Assay:
In this cell protection assay, the ability of compounds to protect cells against HRV infection was measured by the XTT dye reduction method, which is described in Weislow et al., J. Natl. Cancer Inst. (1989), vol. 81, 577-586. H1-HeLa cells were infected with HRV-14 at a multiplicity of infection (m.o.i.) of 0.13 (virus particles/cell) or mock-infected with medium only. Infected or mock-infected cells were resuspended at 8×10^5 cells per mL, and incubated with appropriate concentrations of the compounds to be tested. Two days later, XTT/PMS was added to test plates and the amount of formazan produced was quantified spectrophotometrically at 450/650 nm. […] The therapeutic index (TI) was calculated by dividing the CC50 value by the EC50 value.
as §2

[3] = target: T1, Recombinant rhinovirus 3C protease, serotype 14 (Human rhinovirus 14, UniProt P03303); test: Inhibition of rhinovirus 3C protease (FRET assay, kobs/[I]), serotype 14; assay type: biochemical; settings: pH 7.6; HRV-14; read-out: kobs/[I] (3C protease inhibition activity)
T1 construct: Recombinant rhinovirus 3C proteases; made in house
T1 sequence (P03303 1538-1719): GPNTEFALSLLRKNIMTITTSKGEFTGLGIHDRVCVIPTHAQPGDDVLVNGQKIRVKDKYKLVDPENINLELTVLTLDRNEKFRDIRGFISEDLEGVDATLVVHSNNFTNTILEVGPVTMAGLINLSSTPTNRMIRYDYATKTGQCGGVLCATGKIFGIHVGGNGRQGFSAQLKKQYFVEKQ
Protocol: Inhibition of Rhinovirus 3C Protease:
Stock solutions (50 mM, in DMSO) of various compounds were prepared; dilutions were in the same solvent. Recombinant rhinovirus 3C proteases (see Birch et al., “Purification of recombinant human rhinovirus 14 3C protease expressed in Escherichia coli,” Protein Expr. Pur. (1995), vol. 6(5), 609-618) from serotypes 14, 16, and 2 were prepared by the following standard chromatographic procedures: (1) ion exchange using Q Sepharose Fast Flow from Pharmacia; (2) affinity chromatography using Affi-Gel Blue from Biorad; and (3) sizing using Sephadex G-100 from Pharmacia. Each assay sample contained 2% DMSO, 50 mM tris pH 7.6, 1 mM EDTA, a test compound at the indicated concentration, approximately 1 μM substrate, and 50-100 nM protease. The kobs/I values were obtained from reactions initiated by addition of enzyme rather than substrate. RVP activity was measured in the fluorescence resonance energy transfer assay. The substrate was (N-terminal) DABCYL-([…]-EDANS. In the uncleaved peptide, the EDANS fluorescence was quenched by the proximal DABCYL moiety. When the peptide was cleaved, the quenching was relieved, and activity was measured as an increase in fluorescence signal. The tabulated data in the column designated kobs/[I] were measured from progress curves in enzyme start experiments.

HRV-14 = test: Antirhinoviral H1-HeLa cell culture assay (XTT cell protection, EC50), HRV-14; assay type: cell-based, human rhinovirus (HRV) serotype-14 in H1-HeLa cells; settings: Rhinovirus B, HRV14, H1-HeLa
Protocol: as §4, §1, §2

| EC50 (HRV-14; HRV-14, read-out: EC50) | Structure (SMILES) | CC50 at 2 days [1] | kinact/KI [3] | EC50 (HRV-14) | other results |
| --- | --- | --- | --- | --- | --- |
| – | CC[C@@H](C(=O)N[C@H](/C=C/C(=O)OC(C)(C)C)C[C@@H]1CCNC1=O)n1cccc(NC(=O)c2cc(C)on2)c1=O [Compound 34, trans-(2′S,3″″S,4S)-4-(2′-{3″-[(5′″-Methylisoxazole-3′″-carbonyl)amino]-2″-oxo-2″H-pyridin-1″-yl}butyrylamino)-5-(2″″-oxopyrrolidin-3″″-yl)pent-2-enoic Acid tert-Butyl Ester] | > 10000 nM | 45100 M⁻¹ s⁻¹ | 122 nM | CC50 (H1-HeLa cells; line of HRV-2): > 10000 nM; CC50 (H1-HeLa cells; line of HRV-3): > 10000 nM; CC50 (H1-HeLa cells; line of HRV-9): > 10000 nM; CC50 (H1-HeLa cells; line of HRV-16): > 10000 nM; CC50 (H1-HeLa cells; line of HRV-25): > 10000 nM; CC50 (H1-HeLa cells; line of HRV-39): > 10000 nM; CC50 (H1-HeLa cells; line of HRV-87): > 10000 nM; EC50 ([2]; H1-HeLa, HRV-2): 154 nM; EC50 ([2]; Human rhinovirus sp., HRV3, H1-HeLa, HRV-3): 61 nM; EC50 ([2]; Human rhinovirus sp., HRV9, H1-HeLa, HRV-9): 593 nM; EC50 ([2]; Human rhinovirus sp., HRV16, H1-HeLa, HRV-16): 543 nM; EC50 ([2]; Human rhinovirus sp., HRV25, H1-HeLa, HRV-25): 923 nM; EC50 ([2]; Human rhinovirus sp., HRV39, H1-HeLa, HRV-39): 441 nM; EC50 ([2]; Human rhinovirus sp., HRV87, H1-HeLa, HRV-87): 33 nM |
| 9000 nM | CCOC(=O)/C=C/[C@H](CCC(N)=O)NC(=O)[C@@H]1CCc2ccc(NC(=O)OCc3ccccc3)c(=O)n21 [Compound 36, trans-(3′S,4S)-4-[(6′-Benzyloxycarbonylamino-5′-oxo-1′,2′,3′,5′-tetrahydroindolizine-3′-carbonyl)amino]-6-carbamoylhex-2-enoic Acid Ethyl Ester] | > 100000 nM | 4540 M⁻¹ s⁻¹ | – | – |
| – | C#CC[C@@H](C(=O)N[C@H](/C=C/C(=O)O)C[C@@H]1CCNC1=O)n1cccc(NC(=O)c2cc(C)on2)c1=O [Compound 43, trans-(2′S,3′″″S,4S)-4-[2′-(3″-{[1′″-(5″″-Methylisoxazol-3″″-yl)methanoyl]amino}-2′″-oxo-2′″H-pyridin-1′″-yl)pent-4″-ynoylamino]-5-(2′″″-oxopyrrolidin-3′″″-yl)pent-2-enoic Acid] | > 10000 nM | 382 M⁻¹ s⁻¹ | > 10000 nM | – |
| 24 nM | CCOC(=O)/C=C/[C@H](CCC(N)=O)NC(=O)[C@H](Cc1ccccc1)n1cccc(NC(=O)c2cc(Cl)on2)c1=O [Compound 30, trans-(2′S,4S)-6-Carbamoyl-4-(2′-{3″-[(5′″-chloroisoxazole-3′″-carbonyl)amino]-2″-oxo-2″H-pyridin-1″-yl}-3′-phenylpropionylamino)hex-2-enoic Acid Ethyl Ester] | > 10000 nM | 134000 M⁻¹ s⁻¹ | – | – |
| – | CCOC(=O)/C=C/[C@H](C[C@@H]1CCNC1=O)NC(=O)[C@H](Cc1ccccc1)n1cccc(NC(=O)OCc2ccccc2)c1=O [Compound 19, trans-(2′S,3′″S,4S)-4-[2′-(3″-Benzyloxy-carbonylamino-2″-oxo-2″H-pyridin-1″-yl)-3′-phenylpropionylamino]-5-(2′″-oxopyrrolidin-3′″-yl)pent-2-enoic Acid Ethyl Ester] | > 10000 nM | 380000 M⁻¹ s⁻¹ | 3 nM | – |
| – | CCOC(=O)/C=C/[C@H](C[C@@H]1CCNC1=O)NC(=O)Cn1cccc(NC(=O)c2cc(C)on2)c1=O [Compound 22, trans-(4S,3″″S)-4-(2′-{3″-[(5′″-Methylisoxazole-3′″-carbonyl)amino]-2″-oxo-2″H-pyridin-1″-yl}acetylamino)-5-(2″″-oxopyrrilidin-3″″-yl)pent-2-enoic Acid Ethyl Ester] | > 10000 nM | 18500 M⁻¹ s⁻¹ | 1000 nM | – |
| 15 nM | Cc1cc(C(=O)Nc2cccn([C@@H](Cc3ccc(F)cc3)C(=O)N[C@H](/C=C3\CCOC3=O)C[C@@H]3CCNC3=O)c2=O)no1 [Compound 20, trans-(2″S,2″″S,3″″″S)-5-Methylisoxazole-3-carboxylic Acid (1′-{2″-(4′″-fluorophenyl)-1″-[2″″-(2′″″-oxodihydrofuran-3′″″-ylidene)-1″″-(2″″″oxopyrrolidin-3″″″-ylmethyl)ethylcarbamoyl]ethyl}-2′-oxo-1′,2′-dihydropyridin-3′-yl)amide] | > 10000 nM | 600000 M⁻¹ s⁻¹ | – | – |
| 14 nM | CCOC(=O)/C=C/[C@H](CCC(N)=O)NC(=O)[C@H](Cc1ccc(F)cc1)n1cccc(NC(=O)OCc2ccccc2)c1=O [Compound 7, trans-(2′S,4S)-4-[2′-(3″-Benzyloxycarbonylamino-2″-oxo-2″H-pyridin-1″-yl)-3′-(4′″-fluorophenyl)propionylamino]-6-carbamoylhex-2-enoic Acid Ethyl Ester] | > 10000 nM | 81000 M⁻¹ s⁻¹ | – | – |
| – | CCOC(=O)/C=C/[C@H](C[C@@H]1CCNC1=O)NC(=O)[C@H](Cc1ccccc1)n1ccc2cc[nH]c2c1=O [Compound 3] | > 10000 nM | 2900 M⁻¹ s⁻¹ | 1270 nM | – |
